Earlier results on one molecule are cited in patent US20020194154A1, “Systems, methods and computer program products for integrating biological/chemical databases using aliases” (priority 2001, published 2002).

The conditions of this series: side effect; text mining of HSDB.

For `CC(C)(C)NCC(O)c1cc(Cl)c(N)c(Cl)c1` (centres unmarked) [clenbuterol], the cardiac arrhythmia result is “can in some cases cause cardiac arrhythmia” and the heart rate entry is given as “increases heart rate”.
